Laboratory results reported in US10039752B2 (Cipla Limited, priority 2016, dated 2018).
Like-named read-outs stand apart in the source and are kept apart here.

What was measured:
[1] = test system: PAXF 1986L, PAXF 546L, PAXF Capan-2, and PAXF MIA-Pa-Ca-2; test: cells; details: Homo sapiens, 192 h, read-out: relative IC50 values, range over four cell lines
Procedure: The clonogenic assay was carried out in a 96 well plate format using ultra low attachment plates. For each test cells were prepared as described above, and assay plates were prepared as follows: each test well contained a layer of semi-solid medium with tumor cells (50 μl), and a second layer of medium supernatant with or without test compounds (100 μl). […] The soft-agar layer was immediately covered with 90 μl of the same culture medium without agar. After 24 hour the test compounds were added after serial dilution in IMDM and transfer in cell culture medium, and left on the cells for the duration of the experiment (continuous exposure, 100 μL total drug overlay). Every plate included six untreated control wells and drug-treated groups in a layout as shown above. […] Within this period, ex vivo tumor growth led to the formation of colonies with a diameter of >50 μm. At the time of maximum colony formation, counts were performed with an automatic image analysis system (CellInsight NXT, Thermo Scientific). 48 hours prior to evaluation, vital colonies were stained with a sterile aqueous solution of 2-(4-iodophenyl)-3-(4-nitrophenyl)-5-phenyltetrazolium chloride (1 mg/ml, 100 μl/well).

[2] = test system: human pancreatic cancer xenografts (PDX model PAXF 546); test: In vivo animal efficacy study; design: species or system Nude mice; details: for Mean Tumor volume: methazolamide 60 mg/kg p.o., gemcitabine 50 mg/kg i.v. Q7D, in mm³; for tumor growth inhibition: methazolamide 60 mg/kg orally, gemcitabine 50 mg/kg i.v.
[3] = test system: PAXF HPAC; test: In vitro 2-D assay (CellTiter-Blue cell viability, 96 h); type: cell-based; details: Homo sapiens, 96 hours treatment
Source text: (§1) PAXF 546L, PAXF 1986L, PAXF 1998L, PAXF 2005L and PAXF 2059L were established at Oncotest from the corresponding human patient derived xenograft. CAPAN-2, HUP-T3 and PA-TU-8902 were purchased from DSMZ (Braunschweig, Germany). PANC-1 was purchased from CLS Cell Line Services GmbH (Eppelheim, Germany). BxPC-3, HPAC and MIA-Pa-Ca-2 were purchased from ATCC (Rockville, Md., USA). Authenticity of cell lines was confirmed at the DSMZ by STR (short tandem repeat) analysis, a PCR based DNA-fingerprinting methodology. Cell lines were routinely passaged once or twice weekly and maintained in culture for up to 20 passages. All cells were grown at 37° C. in a humidified atmosphere with 5% CO2 in RPMI 1640 medium (25 mM HEPES, with L-glutamine, #FG1385, Biochrom, Berlin, Germany) supplemented with 10% (v/v) fetal calf serum (Sigma, Taufkirchen, Germany) and 0.1 mg/mL gentamicin (Life Technologies, Karlsruhe, Germany).
(§2) The CellTiter-Blue® Cell Viability Assay (#G8081, Promega) was used according to manufacturer's instructions. Briefly, cells were harvested from exponential phase cultures, counted and plated in 96-well flat-bottom microtiter plates at a cell density of 6,000-20,000 cells/well depending on the cell line's growth rate. After a 24 hours recovery period to allow the cells to resume exponential growth, test compounds were added. […] After 96 hours treatment of cells, 20 μL/well CellTiter-Blue® reagent was added. Following an incubation period of up to four hours, fluorescence (FU) was measured by using the Enspire Multimode Plate Reader (excitation λ=531 nm, emission λ=615 nm). For calculations, the mean values of duplicate/quadruplicate (untreated control) data were used. Sigmoidal concentration-response curves were fitted to the data points (T/C values) obtained for each cell line using 4 parameter non-linear curve fit (Oncotest Warehouse Software).

[4] = test system: PAXF HUP-T3; test: as above; type: cell-based; details: Homo sapiens, PAXF HUP-T3, 96 hours treatment
Source text: as §1, §2

[5] = test system: PAXF 1998L; test: as above; type: cell-based; details: Homo sapiens, PAXF 1998, 96 hours treatment
Source text: as §1, §2

[6] = test system: PAXF 546L; test: as above; type: cell-based; details: Homo sapiens, PAXF 546, 96 hours treatment
Source text: as §1, §2

[7] = test system: PAXF PA-TU-8902; test: as above; type: cell-based; details: Homo sapiens, PaTu 8902, PAXF PA-TU-8902, 96 hours treatment
Source text: as §1, §2

[8] = test system: PAXF 1986L; test: as above; type: cell-based; details: Homo sapiens, PAXF 1986, 96 hours treatment
Source text: as §1, §2

[9] = test system: PAXF CAPAN-2; test: as above; type: cell-based; details: Homo sapiens, PAXF CAPAN-2, 96 hours treatment
Source text: as §1, §2

[10] = test system: PAXF 2059L; test: as above; type: cell-based; details: Homo sapiens, PAXF 2059, 96 hours treatment
Source text: as §1, §2

[11] = test system: PAXF BxPC-3; test: as above; type: cell-based; details: Homo sapiens, PAXF BxPC-3, 96 hours treatment
Source text: as §1, §2

[12] = test system: PAXF PANC-1; test: as above; type: cell-based; details: Homo sapiens, PAXF PANC-1, 96 hours treatment
Source text: as §1, §2

[13] = test system: PAXF 2005L; test: as above; type: cell-based; details: Homo sapiens, PAXF 2005, 96 hours treatment
Source text: as §1, §2

[14] = test system: PAXF HPAC; test: In vitro 3D clonogenic assay; type: cell-based; details: Homo sapiens
Source text: (§3) Cell lines were routinely passaged one or twice weekly.

[15] = test system: PAXF 1986; test: In vitro 3D clonogenic assay; type: cell-based; details: Homo sapiens
Source text: as §3

[16] = test system: PAXF 2005; test: In vitro 3D clonogenic assay; type: cell-based; details: Homo sapiens
Source text: as §3

[17] = test system: PAXF 1982; test: In vitro 3D clonogenic assay; type: cell-based; details: Homo sapiens
Source text: as §3

[18] = test system: PAXF 2059; test: In vitro 3D clonogenic assay; type: cell-based; details: Homo sapiens
Source text: as §3

[19] = test system: PAXF PA-TU-8902; test: In vitro 3D clonogenic assay; type: cell-based; details: Homo sapiens
Source text: as §3

[20] = test system: PAXF 546; test: In vitro 3D clonogenic assay; type: cell-based; details: Homo sapiens
Source text: as §3

[21] = test system: PAXF CAPAN-2; test: In vitro 3D clonogenic assay; type: cell-based; details: Homo sapiens
Source text: as §3

[22] = test system: PAXF BxPC-3; test: In vitro 3D clonogenic assay; type: cell-based; details: Homo sapiens
Source text: as §3

[23] = test system: PAXF PANC-1; test: In vitro 3D clonogenic assay; type: cell-based; details: Homo sapiens
Source text: as §3

[24] = test system: PAXF MIA-Pa-Ca-2; test: cells; details: Homo sapiens
Procedure: as §3
Tumor xenografts (patient-derived, as well as cell line-derived xenografts) were passaged as subcutaneous xenografts in NMRI nu/nu mice. […] The percentage of viable cells was determined in a Neubauer-hemocytometer using trypan blue exclusion. Aliquots of the cells were frozen down, and stored in liquid nitrogen. On each day of an experiment, a frozen aliquot of tumor cells was thawed and used for preparation of assay plates.

[25] = test system: 11 human tumor xenograft-derived cell suspensions or tumor cell lines of pancreatic cancer; test: In vitro 3D clonogenic assay, whole panel (geometric mean); type: cell-based
Source text: as §3

[26] = test system: PAXF MIA-Pa-Ca-2; test: cells; details: Homo sapiens, MIA PaCa-2, 96 h
Source text: as §1, §2

[27] = test system: twelve selected human pancreatic cancer cell lines; test: cells; details: for IC50: Homo sapiens, Pancreatic cancer cell
Source text: as §1, §2

Nc1ccn([C@@H]2O[C@H](CO)[C@@H](O)C2(F)F)c(=O)n1 [Gemcitabine, gemcitabine]
IC50 [1]: 0.013 to 0.062 µM | Mean Tumor volume ([2]; day 1): 119.84 | Mean Tumor volume ([2]; day 3): 172.26 | Mean Tumor volume ([2]; day 9): 214.28 | Mean Tumor volume ([2]; day 12): 262.19 | Mean Tumor volume ([2]; day 15): 312.84 | Mean Tumor volume ([2]; day 18): 334.59 | Mean Tumor volume ([2]; day 21): 382.57 | Mean Tumor volume ([2]; day 24): 454.56 | Mean Tumor volume ([2]; day 28): 592.69 | Mean Tumor volume ([2]; day 31): 648.88 | Mean Tumor volume ([2]; day 34): 696.91 | tumor growth inhibition [2]: 61%

CC(=O)N=c1sc(S(N)(=O)=O)nn1C [Methazolamide, N-[5-(aminosulfonyl)-3-methyl-1,3,4-thiadiazol-2(3H)-ylidene]acetamide]
IC50 ([3]; read-out: Absolute IC50): 5350 µM | IC50 ([3]; read-out: Relative IC50): 5510 µM | IC50 ([4]; read-out: Absolute IC50): 726 µM | IC50 ([4]; read-out: Relative IC50): 711 µM | IC50 ([5]; read-out: Absolute IC50): 2510 µM | IC50 ([5]; read-out: Relative IC50): 2230 µM | IC50 ([6]; read-out: Absolute IC50): 2320 µM | IC50 ([6]; read-out: Relative IC50): 3050 µM | IC50 ([7]; read-out: Absolute IC50): 1030 µM | IC50 ([7]; read-out: Relative IC50): 1130 µM | IC50 ([8]; read-out: Absolute IC50): 1850 µM | IC50 ([8]; read-out: Relative IC50): 1670 µM | IC50 ([9]; read-out: Absolute IC50): 2030 µM | IC50 ([9]; read-out: Relative IC50): 2040 µM | IC50 ([10]; read-out: Absolute IC50): 2040 µM | IC50 ([10]; read-out: Relative IC50): 1790 µM | IC50 ([11]; read-out: Absolute IC50): 1960 µM | IC50 ([11]; read-out: Relative IC50): 2340 µM | IC50 ([12]; read-out: Absolute IC50): 1540 µM | IC50 ([12]; read-out: Relative IC50): 1590 µM | IC50 ([13]; read-out: Absolute IC50): 1840 µM | IC50 ([13]; read-out: Relative IC50): 1580 µM | IC50 ([14]; read-out: Absolute IC50): 1360 µM | IC50 ([14]; read-out: Relative IC50): 1090 µM | IC50 ([15]; read-out: Absolute IC50): 464 µM | IC50 ([15]; read-out: Relative IC50): 486 µM | IC50 ([16]; read-out: Absolute IC50): 523 µM | IC50 ([16]; read-out: Relative IC50): 603 µM | IC50 ([17]; read-out: Absolute IC50): 703 µM | IC50 ([17]; read-out: Relative IC50): 725 µM | IC50 ([18]; read-out: Absolute IC50): 820 µM | IC50 ([18]; read-out: Relative IC50): 754 µM | IC50 ([19]; PaTu 8902, read-out: Absolute IC50): 2110 µM | IC50 ([19]; PaTu 8902, read-out: Relative IC50): 2580 µM | IC50 ([20]; PAXF546, read-out: Absolute IC50): 346 µM | IC50 ([20]; PAXF546, read-out: Relative IC50): 336 µM | IC50 ([21]; read-out: Absolute IC50): 568 µM | IC50 ([21]; read-out: Relative IC50): 620 µM | IC50 ([22]; read-out: Absolute IC50): 837 µM | IC50 ([22]; read-out: Relative IC50): 808 µM | IC50 ([23]; read-out: Absolute IC50): 1760 µM | IC50 ([23]; read-out: Relative IC50): 1820 µM | IC50 [1]: 297 to 806 µM | Mean Tumor volume ([2]; day 1): 94.47 | Mean Tumor volume ([2]; day 3): 121.60 | Mean Tumor volume ([2]; day 9): 151.64 | Mean Tumor volume ([2]; day 12): 189.82 | Mean Tumor volume ([2]; day 15): 253.64 | Mean Tumor volume ([2]; day 18): 341.73 | Mean Tumor volume ([2]; day 21): 470.79 | Mean Tumor volume ([2]; day 24): 583.90 | Mean Tumor volume ([2]; day 28): 718.08 | Mean Tumor volume ([2]; day 31): 836.82 | Mean Tumor volume ([2]; day 34): 916.02 | tumor growth inhibition [2]: up to 50% | IC50 ([24]; MIA PaCa-2, read-out: Absolute IC50): 533 µM | IC50 ([24]; MIA PaCa-2, read-out: Relative IC50): 489 µM | IC50 ([25]; read-out: Absolute IC50, Geometric mean): 777 µM | IC50 ([25]; read-out: Relative IC50, Geometric mean): 783 µM | IC50 ([26]; read-out: Absolute IC50): 1520 µM | IC50 ([26]; read-out: Relative IC50): 1760 µM | activity, shape of concentration-effect curves ([27]; 2-D, all cell lines tested): concentration-dependent activity with sigmoidal concentration-effect curves | IC50 ([27]; read-out: Absolute IC50, Geometric Mean): 1840 µM | IC50 ([27]; read-out: Individual IC50 values, range over cell lines): 726 to 5350 µM | IC50 ([27]; read-out: Relative IC50, Geometric Mean): 1880 µM
